Measured values from US20130196050A1, “SALTY TASTE ENHANCER” (AJINOMOTO CO., INC., priority 2010, published 2013).

Each molecule was assayed against T1, Human ENaC δ, β and γ subunit (Homo sapiens, UniProt P51168+P51170+P51172) (assay: Measurement of ENaC activation potency (two electrode voltage clamp current in ENaC-expressing oocyte)). Conditions: lowest concentration increasing the current value by not less than 10% vs before addition.
T1 construct: expressed in transfected cells; host or cells: Xenopus laevis (African clawed frog) oocytes injected with cRNA
T1 sequence (P51172 1-638 isoform P51172-1): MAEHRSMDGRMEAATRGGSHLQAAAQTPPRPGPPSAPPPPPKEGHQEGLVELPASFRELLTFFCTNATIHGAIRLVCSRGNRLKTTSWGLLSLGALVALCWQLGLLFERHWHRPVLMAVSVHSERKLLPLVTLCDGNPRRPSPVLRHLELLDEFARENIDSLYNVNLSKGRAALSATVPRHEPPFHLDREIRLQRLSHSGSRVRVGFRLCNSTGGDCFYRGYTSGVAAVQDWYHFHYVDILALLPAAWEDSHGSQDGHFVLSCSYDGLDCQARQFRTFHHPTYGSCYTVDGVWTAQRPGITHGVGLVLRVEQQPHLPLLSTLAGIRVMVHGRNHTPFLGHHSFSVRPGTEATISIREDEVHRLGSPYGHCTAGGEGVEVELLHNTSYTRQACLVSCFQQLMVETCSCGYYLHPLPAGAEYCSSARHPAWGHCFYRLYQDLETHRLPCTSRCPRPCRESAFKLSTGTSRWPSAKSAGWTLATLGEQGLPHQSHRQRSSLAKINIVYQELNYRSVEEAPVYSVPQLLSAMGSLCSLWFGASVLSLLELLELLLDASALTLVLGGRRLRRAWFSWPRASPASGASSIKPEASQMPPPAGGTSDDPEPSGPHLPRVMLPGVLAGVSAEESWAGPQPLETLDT
T1 sequence (P51168 1-640): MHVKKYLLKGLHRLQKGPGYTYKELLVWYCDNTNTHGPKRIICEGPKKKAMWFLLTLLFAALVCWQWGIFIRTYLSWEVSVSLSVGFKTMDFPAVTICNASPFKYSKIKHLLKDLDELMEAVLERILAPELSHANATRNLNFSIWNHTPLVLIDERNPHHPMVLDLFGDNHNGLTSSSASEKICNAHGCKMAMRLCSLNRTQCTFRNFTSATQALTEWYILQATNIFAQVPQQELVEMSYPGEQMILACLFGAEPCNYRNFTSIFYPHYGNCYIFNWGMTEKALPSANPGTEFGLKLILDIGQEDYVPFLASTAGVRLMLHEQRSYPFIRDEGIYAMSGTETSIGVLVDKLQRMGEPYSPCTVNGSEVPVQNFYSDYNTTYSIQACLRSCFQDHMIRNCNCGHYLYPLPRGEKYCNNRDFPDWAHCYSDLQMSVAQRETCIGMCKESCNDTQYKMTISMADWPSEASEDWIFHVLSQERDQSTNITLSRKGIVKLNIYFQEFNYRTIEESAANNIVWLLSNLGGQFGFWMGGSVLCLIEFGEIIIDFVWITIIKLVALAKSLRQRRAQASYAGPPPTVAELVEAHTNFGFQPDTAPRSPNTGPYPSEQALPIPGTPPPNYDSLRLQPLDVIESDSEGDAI
T1 sequence (P51170 1-649): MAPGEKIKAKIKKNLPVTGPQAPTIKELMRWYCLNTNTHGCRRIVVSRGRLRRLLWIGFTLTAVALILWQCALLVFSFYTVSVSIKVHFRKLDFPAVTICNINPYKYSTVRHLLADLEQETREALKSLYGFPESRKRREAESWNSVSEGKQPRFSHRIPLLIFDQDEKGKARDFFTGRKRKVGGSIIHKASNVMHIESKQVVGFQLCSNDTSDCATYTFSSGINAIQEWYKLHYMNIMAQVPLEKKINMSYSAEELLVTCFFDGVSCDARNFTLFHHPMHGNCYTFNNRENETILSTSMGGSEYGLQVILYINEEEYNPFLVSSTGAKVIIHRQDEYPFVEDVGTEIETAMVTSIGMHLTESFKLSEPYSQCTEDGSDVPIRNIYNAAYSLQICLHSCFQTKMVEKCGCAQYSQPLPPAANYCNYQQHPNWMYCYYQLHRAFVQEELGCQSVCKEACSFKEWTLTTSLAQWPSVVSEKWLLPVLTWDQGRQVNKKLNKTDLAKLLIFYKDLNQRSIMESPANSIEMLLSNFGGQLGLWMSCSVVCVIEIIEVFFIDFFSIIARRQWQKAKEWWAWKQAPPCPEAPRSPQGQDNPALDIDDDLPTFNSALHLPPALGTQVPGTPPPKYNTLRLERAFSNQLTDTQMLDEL
Assay type: cell-based
Protocol: ENaC activation current value, namely, the inward current in ENaC-expressing oocyte was measured as follows.
According to the method described in Motonao Nakamura, Takao Shimizu: Experiment of African clawed frog oocyte, Experimental Medicine Vol. 11, No. 3, 224-232 (1993), oocyte was collected from African clawed frog, […], and the current value was measured by a Two Electrode Voltage Clamp technique. In the present invention, ND96 (96 mM NaCl, 2 mM KCl, 1 mM MgCl2, 5 mM Hepes, 1.8 mM CaCl2, pH 7.6) was used instead of MBS buffer in the above-mentioned document. Injector NANOLITER 2000 manufactured by World Precision Instruments was used for microinjection, OpusXpress 6000A manufactured by Molecular Devices was used for current value measurement by a Two Electrode Voltage Clamp technique, and Clampfit 10.2 software manufactured by Molecular Devices was used for data analysis.
Human ENaC δ, β and γ subunit genes shown by SEQ ID NOs: 1, 2 and 3, respectively, in the Sequence Listing were each cloned into a plasmid vector, and used as a template DNA for cRNA synthesis. cRNA was synthesized using MEGAscript kit manufactured by Ambion and according to the method of the manual of the manufacturer.
A mixture of the same amount of ENaC δ subunit cRNA (0.4 to 0.8 μg/μL), and β and γ subunits cRNA (0.4 μg/μL) was injected into the oocyte of African clawed frog at 27.6 nL per oocyte, and the oocyte was cultured for 16 hours to 72 hours. Thereafter, the oocyte was set on a measuring apparatus OpusXpress 6000A, the electrodes were inserted into the oocyte, the voltage was clamped at a level lower by −30 mV than the resting membrane potential by a Two Electrode Voltage Clamp technique, and the current value was measured.
To measure the ENaC activation potency, oocyte was stimulated with each test compound, and the minimum effective dose (hereinafter to be abbreviated as MED) of the compound at the time point when the electric current started to increase was measured. In this case, the minimum effective dose of the stimulation compound that increased the current value by not less than 10%, as compared to the current value before addition of the compound and without stimulation, was taken as MED. A smaller MED means higher ENaC activation potency.
Each test compound was directly dissolved in ND96, or first dissolved in dimethyl sulfoxide (DMSO) to 100 mM, and then prepared by diluting the solution with ND96 to a concentration used for the evaluation. The concentration of the test compound in ND96 was prepared to various concentrations within the range of 0.1 nM to 300 μm.
ND96 as a perfusion fluid was flowed at a rate of 0.5 mL/min through the measuring apparatus OpusXpress 6000A on which ENaC-expressing oocyte was set, the perfusion fluid was temporarily stopped every 3 minutes to add a test compound solution (0.25 mL) dissolved in ND96 at a rate of 0.5 mL/minute. In this way, the test compound was contacted with ENaC-expressing oocyte, and whether ENaC is activated by the compound was examined by measuring the current value. After addition of the test compound, feeding of the perfusion fluid was resumed to wash away the compound to be ready for the next addition of the compound.
The compound was added successively from a low concentration to a high concentration to stimulate ENaC-expressing oocyte. The concentrations actually added was, for example, 1 nM, 3 nM, 10 nM, 30 nM, 100 nM, 300 nM; 1 μM, 3 μM, 10 μm, 30 μm, 100 μm, 300 μm; 1.2 μM, 6 μM, 30 μm, 150 μm of one test compound. The compound was added from low concentrations to high concentrations at 3 minute intervals. The first compound was added from a low concentration to a high concentration, then the second and the third compounds were similarly added successively to the same oocyte, and changes in the current value were measured. The current value was continuously measured from the start to the end of the experiment. […]
With `CC(Cc1c[nH]c2ccccc12)(NC(=O)c1c(O)cccc1O)C(=O)O` (stereo not drawn) [Example 18] the “MED value (minimum effective dose)” value was 3 µM. With `O=C(N[C@@H](CCc1ccccc1)C(=O)O)c1c(O)cccc1O` [Example 83] the “MED value (minimum effective dose)” value was 0.3-1^ μM. With `N[C@@H](CCc1ccccc1)C(=O)Nc1c(O)cccc1O` [Example 81] the “MED value (minimum effective dose)” value was 3 µM. For `O=C(N[C@@H](Cc1ccccc1)C(=O)O)c1c(O)cc(O)cc1O` [Example 123], the “MED value (minimum effective dose)” value was 10 µM. With `COC(=O)[C@@H](Cc1c[nH]c2ccccc12)NC(=O)c1c(O)cccc1O` [Example 2] the “MED value (minimum effective dose)” value was 0.6 µM. In the case of `O=C(CCc1ccccc1)N[C@@H](Cc1c[nH]c2ccccc12)C(=O)O` [Example 63], the “MED value (minimum effective dose)” value is reported as 1 to 3 µM. For `Cc1ccc2[nH]cc(CC(NC(=O)CCc3ccccc3)C(=O)O)c2c1` (stereo not drawn) [Example 73], the “MED value (minimum effective dose)” value was 1 to 3 µM. For `O=C(N[C@H](CO)Cc1c[nH]c2ccccc12)c1c(O)cccc1O` [Example 14], the “MED value (minimum effective dose)” value was 1 µM. For `O=C(NCCc1c[nH]c2ccccc12)c1cc(O)ccc1O` [Example 42], the “MED value (minimum effective dose)” value was 1 to 3 µM. In the case of `O=C(N[C@@H](Cc1c[nH]c2ccccc12)C(=O)O)c1ccc(Br)cc1O` [Example 110], the “MED value (minimum effective dose)” value is reported as 0.1 to 0.3 µM. For `Cc1cc(O)c(C(=O)N[C@@H](CCc2ccccc2)C(=O)O)c(O)c1` [Example 117], the “MED value (minimum effective dose)” value was 0.3 µM. `O=C(N[C@@H](Cc1c[nH]c2ccc(O)cc12)C(=O)O)c1c(O)cccc1O` [Example 12] was tested, and the “MED value (minimum effective dose)” value was 3 µM. For `O=C(CCc1c[nH]c2ccccc12)Nc1c(O)cccc1O` [Example 87], the “MED value (minimum effective dose)” value was 3 µM. `O=C(N[C@@H](Cc1c[nH]c2ccccc12)C(=O)OCc1ccccc1)c1c(O)cccc1O` [Example 15] was tested, and the “MED value (minimum effective dose)” value was 10 µM. In the case of `Cn1cc(C[C@H](NC(=O)CCc2ccccc2)C(=O)O)c2ccccc21` [Example 71], the “MED value (minimum effective dose)” value is reported as 1 to 3 µM. With `Cc1ccc2c(CC(NC(=O)CCc3ccccc3)C(=O)O)c[nH]c2c1` (stereo not drawn) [Example 77] the “MED value (minimum effective dose)” value was 1 to 3 µM. For `COC(=O)[C@H](Cc1ccccc1)NC(=O)c1cc(Br)ccc1O` [Example 96], the “MED value (minimum effective dose)” value was 1 µM. In the case of `O=C(NCCc1c[nH]c2ccc(O)cc12)c1c(C(F)(F)F)cccc1C(F)(F)F` [Example 26], the “MED value (minimum effective dose)” value is reported as 6 µM. With `Cc1cc(O)c(C(=O)NCCc2c[nH]c3ccc(O)cc23)c(O)c1` [Example 29] the “MED value (minimum effective dose)” value was 1 to 3 µM. `N[C@H](Cc1c[nH]c2ccccc12)C(=O)Nc1c(O)cccc1O` [Example 23] was tested, and the “MED value (minimum effective dose)” value was 10 µM. `COC(=O)C(Cc1c[nH]c2cc(F)ccc12)NC(=O)c1c(O)cccc1O` (stereo not drawn) [Example 17] was tested, and the “MED value (minimum effective dose)” value was 1 µM. In the case of `O=C(NC(Cc1c[nH]c2ccccc12)C(=O)O)c1cccc(O)c1O` (stereo not drawn) [Example 39], the “MED value (minimum effective dose)” value is reported as 1 µM. `O=C(N[C@@H](Cc1c[nH]c2ccccc12)C(=O)O)c1c(O)cc(O)cc1O` [Example 121] was tested, and the “MED value (minimum effective dose)” value was 3 µM. For `O=C(NCCc1c[nH]c2ccc(O)cc12)c1ccccc1O` [Example 6], the “MED value (minimum effective dose)” value was 3 µM. In the case of `Cc1cc(O)c(C(=O)NCCc2c[nH]c3ccccc23)c(O)c1` [Example 124], the “MED value (minimum effective dose)” value is reported as 3 µM. In the case of `O=C(NCCc1c[nH]c2ccc(O)cc12)c1c(O)cc(O)cc1O` [Example 28], the “MED value (minimum effective dose)” value is reported as 1 to 3 µM. With `O=C(N[C@@H](Cc1c[nH]c2ccccc12)C(=O)O)c1c(O)cccc1O` [Example 3] the “MED value (minimum effective dose)” value was 0.6 µM. `COC(=O)[C@H](Cc1c[nH]c2ccccc12)NC(=O)c1c(O)cc(C)cc1O` [Example 112] was tested, and the “MED value (minimum effective dose)” value was 1 µM. With `COC(=O)[C@H](Cc1c[nH]c2ccccc12)NC(=O)c1c(O)cc(O)cc1O` [Example 120] the “MED value (minimum effective dose)” value was 0.3 µM. In the case of `CCOC(=O)[C@H](Cc1ccccc1)NC(=O)c1c(O)cc(C)cc1O` [Example 114], the “MED value (minimum effective dose)” value is reported as 10 µM. For `O=C(NC(Cc1c[nH]c2cc(F)ccc12)C(=O)O)c1c(O)cccc1O` (stereo not drawn) [Example 19], the “MED value (minimum effective dose)” value was 1 µM. With `COC(=O)C(C)(Cc1c[nH]c2ccccc12)NC(=O)c1c(O)cccc1O` (stereo not drawn) [Example 16] the “MED value (minimum effective dose)” value was 3 µM. With `O=C(O)c1ccccc1C(=O)NCCc1c[nH]c2ccc(O)cc12` [Example 9] the “MED value (minimum effective dose)” value was 3 µM. `COc1ccc(CCC(=O)N[C@@H](Cc2c[nH]c3ccccc23)C(=O)O)cc1` [Example 65] was tested, and the “MED value (minimum effective dose)” value was 3 µM. `O=C(CCc1ccccc1)NC(C(=O)O)c1ccccc1` (stereo not drawn) [Example 79] was tested, and the “MED value (minimum effective dose)” value was 10 µM. With `N[C@@H](Cc1ccccc1)C(=O)Nc1c(O)cccc1O` [Example 80] the “MED value (minimum effective dose)” value was 3 µM.
